{"source": "paper PMC8313282", "about": "(Microbial Biotechnology, 2021)", "biological_target": "T1, YHR112C (Saccharomyces cerevisiae, UniProt P38716)", "T1 sequence (P38716 1-378)": "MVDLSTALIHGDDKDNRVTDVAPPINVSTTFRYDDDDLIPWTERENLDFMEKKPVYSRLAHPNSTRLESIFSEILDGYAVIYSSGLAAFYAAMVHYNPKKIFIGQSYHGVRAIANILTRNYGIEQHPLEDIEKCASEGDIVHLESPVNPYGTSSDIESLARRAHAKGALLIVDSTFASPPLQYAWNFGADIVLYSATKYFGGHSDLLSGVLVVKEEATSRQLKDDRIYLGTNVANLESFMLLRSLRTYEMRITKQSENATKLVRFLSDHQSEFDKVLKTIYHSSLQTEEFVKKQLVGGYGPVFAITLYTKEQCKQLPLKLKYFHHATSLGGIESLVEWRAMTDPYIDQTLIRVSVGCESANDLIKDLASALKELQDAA", "assay": "HPLC of L-Met depletion and alpha-ketobutyrate", "type": "biochemical", "conditions": "50 mM Tris-HCl pH 8.0; 20 mM L-Met; 5 μM PLP; 30°C; 1 h; weak activity", "data": [{"smiles": "CSCC[C@H](N)C(=O)O", "note": "[L‐Met]", "values": [{"measurement": "HPLC of L-Met depletion and alpha-ketobutyrate", "result": "while weak changes were observed for YHR112C"}]}]}
